Assay results as given in patent US20250179047A1, “5-[7-(3,4-DIHYDRO-1H-ISOQUINOLINE-2-CARBONYL)-1,2,3,4 TETRAHYDROISOQUINOLIN-6-YL]-1H-PYRROLE-3-CARBOXAMIDE DERIVATIVES, PHARMACEUTICAL COMPOSITIONS CONTAINING THEM AND THEIR USES AS PRO-APOPTOTIC AGENTS” (LES LABORATOIRES SERVIER, priority 2022, published 2025).

Tests used:
[1] = target: BCL2 WT (Homo sapiens (Human), UniProt P10415); test: TR-FRET competitive binding assay, BCL2 WT; details: Ki determined from IC50, read-out: TR_FRET EKI_Bcl2 WT
Outline: (§1)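 Competitive TR-FRET displacement of fluorescein-PUMA peptide (2 or 20 nM) from 0.5 nM terbium-labelled N-terminal Halo-fusion BCL2 (1-207, wild type or mutant) or BCLXL (2-196), expressed in E. coli. Buffer 50 mM Hepes pH 7.5, 150 mM NaCl, 5% DMSO; 2 h at 23°C. 520/495 nm ratio fitted over 11 points for IC50, converted to Ki.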

[2] = test system: KMS-12-PE Bcl-2 G101V; test: In vitro cytotoxicity CellTiter-Glo 48 h, KMS-12-PE Bcl-2 G101V; type: cell-based; details: for Ratio (G101V/WT): C50 KMS-12-PE Bcl-2 G101V over C50 KMS-12-PE Bcl-2 WT; for IC50: Homo sapiens, KMS-12-PE, 48 h, CellTiter-Glo, C50 = concentration needed to reach 50% of the cellular viability
Outline: (§2)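 Potency is expressed as C50, the compound concentration at which viability of engineered KMS-12-PE cells (Bcl-2 wild type or G101V) falls to 50%, determined from CellTiter-Glo luminescence after 48 h of treatment over 11 concentrations.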

[3] = test system: KMS-12-PE Bcl-2 WT; test: In vitro cytotoxicity CellTiter-Glo 48 h, KMS-12-PE Bcl-2 WT; type: cell-based; details: Homo sapiens, KMS-12-PE, C50 = concentration needed to reach 50% of the cellular viability
Outline: as §2

[4] = target: BCL2 F104I (Homo sapiens, UniProt P10415, F104I); test: TR-FRET competitive binding assay, BCL2 F104I; details: Ki determined from IC50, read-out: TR_FRET EKI_Bcl2 F104I
Outline: as §1

[5] = target: BCL2 G101V (Homo sapiens, UniProt P10415, G101V); test: TR-FRET competitive binding assay, BCL2 G101V; details: BCL2 G101V; Ki determined from IC50; read-out: TR_FRET EKI_Bcl2 G101V
Outline: as §1

[6] = test system: BCL2 G101V; test: TR-FRET competitive binding assay, BCL2 G101V; parameters: species or system human; details: ratio Ki BCL2 G101V / Ki BCL2 WT
Outline: as §1

[7] = target: BCL2 D111A (Homo sapiens, UniProt P10415, D111A); test: TR-FRET competitive binding assay, BCL2 D111A; details: Ki determined from IC50, read-out: TR_FRET EKI_Bcl2 D111A
Outline: as §1

[8] = target: BCL2 D103Y (Homo sapiens, UniProt P10415, D103Y); test: TR-FRET competitive binding assay, BCL2 D103Y; details: Ki determined from IC50, read-out: TR_FRET EKI_Bcl2 D103Y
Outline: as §1

[9] = target: BCLXL WT (Homo sapiens (Human), UniProt Q07817); test: TR-FRET competitive binding assay, BCLXL WT; details: for Ki: BCLXL WT, Ki determined from IC50, read-out: TR_FRET EKI BclxL; for TR_FRET EKI BCLxL/WT selectivty ratio: ratio Ki BCLxL / Ki BCL2 WT
Outline: as §1

[10] = target: CYP3A4 (Homo sapiens (Human), UniProt P08684); test: CYP3A4 inhibition determination in hepatic human microsomes; type: in vitro ADME; details: LC/MS-MS of specific metabolite
Experimental: The inhibitory potential was determined on CYP3 Å4 enzyme using hepatic human microsomes. A range of concentrations (adapted based on the solubility) of the tested compound were incubated in presence of a substrate having a specific metabolite of CYP3 Å4 enzyme.
Then, the formation of the metabolite was quantified using LC/MS-MS analysis and a curve corresponding to the concentration of the metabolite in function of the concentration of the test compound allowed to the calculation of the IC50 value.

[11] = test system: KMS12PE Bcl2 WT; test: In vitro cytotoxicity CellTiterGlo 72 h, KMS12PE Bcl2 WT; type: cell-based; details: Homo sapiens, KMS-12-PE, read-out: C50 nM, KMS12PE Bcl2 WT
Experimental: (§3) KMS-12-PE (ACC 606) were purchased from the Leibniz-Institute DSMZ (Braunschweig, Germany) and were grown at 37° C. in a humidified atmosphere with 5% CO2 in media recommended by the suppliers. Lentiviral particles containing Bcl-2 wild type (also named “Bcl2 WT”), Bcl-2 mutated on G101V (also named “Bcl2 G101V”), Bcl-2 mutated on D103Y (also named “Bcl2 D103Y”), Bcl-2 mutated on D103V (also named “Bcl2 D103V”), Bcl-2 mutated on D103E (also named “Bcl2 D103E”), Bcl-2 mutated on F104I (also named “Bcl2 F104I”), Bcl-2 mutated on F104L (also named “Bcl2 F104L”), Bcl-2 mutated on D111A (also named “Bcl2 D111A”), Bcl-2 mutated on A113G (also named “Bcl2 A113G”), Bcl-2 mutated on R129L (also named “Bcl2 R129L”), Bcl-2 mutated on V156D (also named “Bcl2 V156D”) were cloned into pcLV-CMV-DEST-IRES-TagRFP. Lentiviral particles (1×10^6) were mixed with Polybrene at 8 μg/ml and transduced by spinoculation for 1 h at 32° C. and incubated overnight. After 8 days, TagRFP positive-cells were sorted by FACS. BCL2 expression was monitored by immunoblotting using anti-Flag and anti-BCL2 antibodies. Cells were seeded into 96-wells plates and treated with 1:3.16 serial dilution of compounds (9 different concentrations). Cell viability was assessed using CellTiterGlo reagent following treatment for 72 h. Results were normalized to the viability of cells without compounds (control wells). The C50 values were calculated using nonlinear regression algorithms in XCell software.

[12] = test system: KMS12PE Bcl2 V156D; test: In vitro cytotoxicity CellTiterGlo 72 h, KMS12PE Bcl2 V156D; type: cell-based; details: Homo sapiens, KMS-12-PE, read-out: C50 nM, KMS12PE Bcl2 V156D
Experimental: as §3

[13] = test system: KMS12PE Bcl2 D103Y; test: In vitro cytotoxicity CellTiterGlo 72 h, KMS12PE Bcl2 D103Y; type: cell-based; details: Homo sapiens, KMS-12-PE, read-out: C50 nM, KMS12PE Bcl2 D103Y
Experimental: as §3

[14] = test system: KMS12PE Bcl2 A113G; test: In vitro cytotoxicity CellTiterGlo 72 h, KMS12PE Bcl2 A113G; type: cell-based; details: Homo sapiens, KMS-12-PE, read-out: C50 nM, KMS12PE Bcl2 A113G
Experimental: as §3

[15] = test system: KMS12PE Bcl2 F104I; test: In vitro cytotoxicity CellTiterGlo 72 h, KMS12PE Bcl2 F104I; type: cell-based; details: Homo sapiens, KMS-12-PE, read-out: C50 nM, KMS12PE Bcl2 F104I
Experimental: as §3

[16] = test system: KMS12PE Bcl2 F104L; test: In vitro cytotoxicity CellTiterGlo 72 h, KMS12PE Bcl2 F104L; type: cell-based; details: Homo sapiens, KMS-12-PE, read-out: C50 nM, KMS12PE Bcl2 F104L
Experimental: as §3

[17] = test system: KMS12PE Bcl2 R129L; test: In vitro cytotoxicity CellTiterGlo 72 h, KMS12PE Bcl2 R129L; type: cell-based; details: Homo sapiens, KMS-12-PE, read-out: C50 nM, KMS12PE Bcl2 R129L
Experimental: as §3

[18] = test system: KMS12PE Bcl2 D103V; test: In vitro cytotoxicity CellTiterGlo 72 h, KMS12PE Bcl2 D103V; type: cell-based; details: Homo sapiens, KMS-12-PE, read-out: C50 nM, KMS12PE Bcl2 D103V
Experimental: as §3

[19] = test system: KMS12PE Bcl2 G101V; test: In vitro cytotoxicity CellTiterGlo 72 h, KMS12PE Bcl2 G101V; type: cell-based; details: Homo sapiens, KMS-12-PE, read-out: C50 nM, KMS12PE Bcl2 G101V
Experimental: as §3

[20] = test system: KMS12PE Bcl2 D103E; test: In vitro cytotoxicity CellTiterGlo 72 h, KMS12PE Bcl2 D103E; type: cell-based; details: Homo sapiens, KMS-12-PE, read-out: C50 nM, KMS12PE Bcl2 D103E
Experimental: as §3

[21] = test system: KMS12PE Bcl2 D111A; test: In vitro cytotoxicity CellTiterGlo 72 h, KMS12PE Bcl2 D111A; type: cell-based; details: Homo sapiens, KMS-12-PE, read-out: C50 nM, KMS12PE Bcl2 D111A
Experimental: as §3

[22] = test system: KMS12PE; test: In vitro cytotoxicity CellTiterGlo 72 h, KMS12PE; type: cell-based; details: Homo sapiens, KMS-12-PE, read-out: C50 nM, KMS12PE
Experimental: as §3

[23] = test system: platelets; test: Platelet depletion in SCID mice; type: in vivo; details: 25 mg/kg IV bolus, vs control group
Experimental: (§4) Pharmacokinetic (PK) and platelet toxicity were investigated in SCID mice. Compounds were administered at 25 mg/kg by IV bolus, and formulated in PEG/Ethanol/NaCl 0.9% (40/10/50 v/v/v).
(§5) Blood samples (3 animals/time point and 3 time points/animal) were collected over 24 h after dosing: 0.05 h, 0.5 h, 1 h, 3 h, 6 h and 24 h for PK and 6 h and 24 h for platelets.
(§6) PK samples were analyzed by liquid chromatography using tandem mass spectrometry detection (LC-MS/MS) and platelet count (109/L) was measured using an hematology analyzer. Percentage of platelet loss was calculated at both time points (T+6 h and 24 h) as compared to a control group of 6 animals. PK parameters (Cinf and AUC24, which correspond to the concentration at the end of bolus administration and the area under curve over 24 h, respectively) were also determined using a non-compartmental analysis.

[24] = Pharmacokinetics in SCID mice; type: in vivo; details: 25 mg/kg IV bolus
Experimental: as §4, §5, §6

Chain of BCLXL WT (Q07817 other isoform, or with tags, fused parts or gaps): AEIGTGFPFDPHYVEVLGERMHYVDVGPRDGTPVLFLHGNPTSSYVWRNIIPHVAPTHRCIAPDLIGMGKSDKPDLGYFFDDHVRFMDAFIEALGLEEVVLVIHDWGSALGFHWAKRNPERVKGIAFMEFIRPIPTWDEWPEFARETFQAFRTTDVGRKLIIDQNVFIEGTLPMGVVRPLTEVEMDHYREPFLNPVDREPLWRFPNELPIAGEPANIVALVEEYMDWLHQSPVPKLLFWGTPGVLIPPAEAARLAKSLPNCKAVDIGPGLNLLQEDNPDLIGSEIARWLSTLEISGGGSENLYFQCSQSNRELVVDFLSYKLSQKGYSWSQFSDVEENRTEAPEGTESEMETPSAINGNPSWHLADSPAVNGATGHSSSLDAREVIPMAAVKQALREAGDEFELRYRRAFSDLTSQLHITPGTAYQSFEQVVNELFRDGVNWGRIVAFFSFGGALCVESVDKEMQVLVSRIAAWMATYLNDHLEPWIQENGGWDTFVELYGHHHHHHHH
Chain of CYP3A4 (P08684 whole entry): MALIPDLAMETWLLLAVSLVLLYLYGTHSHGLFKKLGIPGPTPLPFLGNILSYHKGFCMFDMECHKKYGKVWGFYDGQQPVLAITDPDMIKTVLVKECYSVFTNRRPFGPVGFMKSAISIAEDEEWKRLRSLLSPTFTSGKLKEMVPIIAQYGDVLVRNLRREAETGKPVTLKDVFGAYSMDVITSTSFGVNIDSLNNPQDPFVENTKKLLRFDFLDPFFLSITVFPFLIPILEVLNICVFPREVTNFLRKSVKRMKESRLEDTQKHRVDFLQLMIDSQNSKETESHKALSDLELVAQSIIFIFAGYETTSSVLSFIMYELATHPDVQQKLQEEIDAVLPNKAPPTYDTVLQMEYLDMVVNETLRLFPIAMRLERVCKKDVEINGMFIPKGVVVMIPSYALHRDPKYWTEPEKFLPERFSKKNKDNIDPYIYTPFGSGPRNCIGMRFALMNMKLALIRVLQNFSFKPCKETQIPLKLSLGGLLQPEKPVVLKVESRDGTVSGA

| Ki [1] [nM] | Ki [4] [nM] | Ki [5] [nM] | TR_FRET EKI G101V/WT selectivty ratio [6] | Ki [7] [nM] | Ki [8] [nM] | Ki [9] [nM] | TR_FRET EKI BCLxL/WT selectivty ratio [9] | IC50 [10] [nM] | SMILES | Ratio (G101V/WT) [2] | IC50 [2] [µM] | IC50 [3] [µM] | other results |
| --- | --- | --- | --- | --- | --- | --- | --- | --- | --- | --- | --- | --- | --- |
| 0.04 | 0.15 | 0.3 | 6.3 | 0.09 | 0.11 | 4.1 | 102.5 | > 5000 | Cc1c(C(=O)N(c2ccc(O)cc2)c2cc(C#N)n(C(F)F)c2C)cc(-c2cc3c(cc2C(=O)N2Cc4ccccc4C[C@H]2CN2CCCC2)CN(C(=O)Cc2ccc(OCCN4CCOCC4)cc2F)CC3)n1C [Example 110] | 5.02 | 0.0512 | 0.0102 | – |
| 0.17 | – | 1.3 | 7.6 | – | 0.48 | 3.2 | 18.8 | 12000 | Cc1c(N(C(=O)c2cc(-c3cc4c(cc3C(=O)N3Cc5ccccc5C[C@H]3C)CN(C(=O)c3ccccc3)CC4)n(C)c2C)c2ccc(O)cc2)cc(C#N)n1C [Example 25, 5-{2-benzoyl-7-[(3R)-3-methyl-1,2,3,4-tetrahydroisoquinoline-2-carbonyl]-1,2,3,4-tetrahydroisoquinolin-6-yl}-N-(5-cyano-1,2-dimethyl-1H-pyrrol-3-yl)-N-(4-hydroxyphenyl)-1,2-dimethyl-1H-pyrrole-3-carboxamide] | 12.4 | 0.0778 | 0.0063 | – |
| 0.02 | – | 0.1 | 4.7 | – | 0.07 | 1.9 | 105.6 | > 5000 | Cc1c(N(C(=O)c2cc(-c3cc4c(cc3C(=O)N3Cc5ccccc5C[C@H]3CN3CCCC3)CN(C(=O)Cc3ccc(OCCN(C)C5CC5)cc3F)CC4)n(C)c2C)c2ccc(O)cc2)cc(C#N)n1C [Example 101, N-(5-cyano-1,2-dimethylpyrrol-3-yl)-5-{2-[2-(4-{2-[cyclopropyl(methyl)amino]ethoxy}-2-fluorophenyl)acetyl]-7-{[(3S)-3-(pyrrolidin-1-ylmethyl)-3,4-dihydro-1H-isoquinolin-2-yl]carbonyl}-3,4-dihydro-1H-isoquinolin-6-yl}-N-(4-hydroxyphenyl)-1,2-dimethylpyrrole-3-carboxamide] | 4.86 | 0.0806 | 0.0166 | – |
| – | – | – | – | – | – | – | – | – | CC1(C)CCC(CN2CCN(c3ccc(C(=O)NS(=O)(=O)c4ccc(NCC5CCOCC5)c([N+](=O)[O-])c4)c(Oc4cnc5[nH]ccc5c4)c3)CC2)=C(c2ccc(Cl)cc2)C1 [ABT199, Venetoclax, reference compound] | – | – | – | IC50 [11]: 30.2 nM; IC50 [12]: 139 nM; IC50 [13]: 1140 nM; IC50 [14]: 120 nM; IC50 [15]: 1300 nM; IC50 [16]: 1420 nM; IC50 [17]: 42.6 nM; IC50 [18]: 590 nM; IC50 [19]: 1050 nM; IC50 [20]: 260 nM; IC50 [21]: 22.4 nM; IC50 [22]: 5.5 nM |
| 0.1 | 0.52 | 0.3 | 2.7 | 0.4 | 0.11 | 2.3 | 24.0 | – | Cc1c(N(C(=O)c2cc(-c3cc4c(cc3C(=O)N3Cc5ccccc5C[C@H]3CN3CCOCC3)CN(C(=O)Cc3ccc(OCCC5CCOCC5)cc3F)CC4)n(C)c2C)c2ccc(O)cc2)cc(C#N)n1C [Example 54, N-(5-cyano-1,2-dimethyl-pyrrol-3-yl)-5-[2-[2-[2-fluoro-4-(2-tetrahydropyran-4-ylethoxy)phenyl]acetyl]-7-[(3S)-3-(morpholinomethyl)-3,4-dihydro-1H-isoquinoline-2-carbonyl]-3,4-dihydro-1H-isoquinolin-6-yl]-N-(4-hydroxyphenyl)-1,2-dimethyl-pyrrole-3-carboxamide] | 4.23 | 0.024 | 0.0057 | Platelet loss (%) 6 h ([23]; 6 h after dosing): 28.6%; Platelet loss (%) 24 h ([23]; 24 h after dosing): 22.5%; PK parameters Cinf ([24]; concentration at the end of bolus administration): 11.4 µM; AUC ([24]; mouse, blood, area under curve over 24 h, read-out: PK parameters AUC24): 9.2 µM·h |
